Laboratory results: PMC6008299, “Impact of race on dose selection of molecular-targeted agents in early-phase oncology trials” (British Journal of Cancer, 2018)

Test system: patients with advanced, refractory solid tumours
Experiment: US and Japanese phase I studies combined: safety
Format: in vivo, human
Method: We conducted two independent, prospective, first-in-human phase I studies of DS-7423, a dual PI3K/mTOR inhibitor, in patients with advanced, refractory solid tumours in the US (U101 study) and Japan (J102 study); age ≥18 years in the US and ≥20 years in Japan; and Eastern Cooperative Oncology Group performance status (ECOG PS) 0–1. Key exclusion criteria included fasting glucose >126 mg/dL (>7 mmol/L); HbA1c >7.0% for the US and HbA1c >6.5% for Japan; history of diabetes mellitus (type I or II); concomitant use of chronic systemic corticosteroids, or prior toxicities from a dual PI3K/mTOR inhibitor (Supplementary Table 1). Studies were approved by the Institutional Review Board at the participating institutions and regulatory authorities. Written informed consent in English and Japanese was obtained from all patients prior to enrollment. The study followed the Declaration of Helsinki and good clinical practice guidelines and was registered with ClinicalTrials.gov (NCT01364844) and with ClinicalTrials.jp (Japic CTI, 12766).
The primary objective was to assess the safety and tolerability to determine the MTD and RP2D of DS-7423 in US and Japanese patients. Secondary and exploratory objectives were to evaluate PK, tumour response, and PD effects. Treatment-emergent adverse events (TEAE) were graded using the Common Terminology Criteria for Adverse Events version 4.0. A dose-limiting toxicity (DLT) was defined as a grade ≥3 clinically significant toxicity, with the exceptions of grade ≥4 anaemia and prolonged grade 3 neutropenia. Both studies were open-label, phase I dose-escalation studies. In Japan, the study was conducted at a single centre, while the US study was conducted at three sites. In Japan, dose escalation of DS-7423 was guided by the modified continuous reassessment method (mCRM) using a Bayesian logistic regression model following the escalation with overdose control (EWOC) principle at a starting dose of 4 mg once daily.[9] In the US, an accelerated titration design was used at low doses followed by a mCRM with EWOC. Briefly, the dose was escalated based on safety data in a single patient until a grade 2 or higher toxicity was observed during cycle 1 or the DLT period (days 1–28). In both studies, DS-7423 was administered orally once daily until patients experienced unacceptable treatment-related toxicity or disease progression. Prophylactic granulocyte colony-stimulating factor and antiemetics were not permitted during cycle 1.

Compound: CC(=O)N1CCN(c2nc3c(N4CCOCC4)nc(-c4cnc(N)nc4)nc3n2CC(F)(F)F)C[C@H]1C [DS-7423]
- AST increased (TEAE), incidence (All (n = 69)): 10.1%
- AST increased (TEAE), n patients (All (n = 69)): 7
- Abdominal pain (TEAE), incidence (All (n = 69)): 14.5%
- Abdominal pain (TEAE), n patients (All (n = 69)): 10
- Back pain (TEAE), incidence (All (n = 69)): 15.9%
- Back pain (TEAE), n patients (All (n = 69)): 11
- Blood creatinine increased (TEAE), incidence (All (n = 69)): 10.1%
- Blood creatinine increased (TEAE), n patients (All (n = 69)): 7
- Constipation (TEAE), incidence (All (n = 69)): 18.8%
- Constipation (TEAE), n patients (All (n = 69)): 13
- Cough (TEAE), incidence (All (n = 69)): 15.9%
- Cough (TEAE), n patients (All (n = 69)): 11
- Decreased appetite (TEAE), incidence (All (n = 69)): 49.3%
- Decreased appetite (TEAE), n patients (All (n = 69)): 34
- Dehydration (TEAE), incidence (All (n = 69)): 8.7%
- Dehydration (TEAE), n patients (All (n = 69)): 6
- Diarrhoea (TEAE), incidence (All (n = 69)): 56.5%
- Diarrhoea (TEAE), n patients (All (n = 69)): 39
- Dry mouth (TEAE), incidence (All (n = 69)): 18.8%
- Dry mouth (TEAE), n patients (All (n = 69)): 13
- Dysgeusia (TEAE), incidence (All (n = 69)): 27.5%
- Dysgeusia (TEAE), n patients (All (n = 69)): 19
- Edema (TEAE), incidence (All (n = 69)): 17.4%
- Edema (TEAE), n patients (All (n = 69)): 12
- Fatigue (TEAE), incidence (All (n = 69)): 55.1%
- Fatigue (TEAE), n patients (All (n = 69)): 38
- Hyperglycaemia (TEAE), incidence (All (n = 69)): 17.4%
- Hyperglycaemia (TEAE), n patients (All (n = 69)): 12
- Lung infection/ pneumonia (TEAE), incidence (All (n = 69)): 5.8%
- Lung infection/ pneumonia (TEAE), n patients (All (n = 69)): 4
- Nausea (TEAE), incidence (All (n = 69)): 56.5%
- Nausea (TEAE), n patients (All (n = 69)): 39
- Pyrexia (TEAE), incidence (All (n = 69)): 14.5%
- Pyrexia (TEAE), n patients (All (n = 69)): 10
- Rash (TEAE), incidence (All (n = 69)): 33.3%
- Rash (TEAE), n patients (All (n = 69)): 23
- Stomatitis (TEAE), incidence (All (n = 69)): 33.3%
- Stomatitis (TEAE), n patients (All (n = 69)): 23
- Vomiting (TEAE), incidence (All (n = 69)): 37.7%
- Vomiting (TEAE), n patients (All (n = 69)): 26
- RP2D (US and Japan phase I studies, oral once daily): 240 mg/day
- DS-7423-related ≥grade 3 TEAE (all cohorts): rare
- Grade of nausea, vomiting, and dysgeusia events (all cohorts): grade 1 or 2
